The nature of data set [1]: in vitro. Conditions: human, Huh-7 cells.
Data set [2] relates to Ebolavirus. Nature of the data set: microbe, parasite or virus in culture. The format is functional, organism-based. The note with it: Orthoebolavirus.
Data set [3] relates to Lassa virus. Nature of the data set: microbe, parasite or virus in culture. The format is functional, organism-based. Conditions: Mammarenavirus lassaense, A549.
Data set [4] deals with Zika virus. Briefly: Antiviral activity against ZIKV-PRVABC59 infected in Neuronal cell line measured after 24 hrs. Type of data set: functional, organism-based.
For data set [5], the system named is Zika virus. Briefly: microbe, parasite or virus in culture.
The subject of data set [6] is Zika virus. Briefly: Antiviral activity against ZIKV-PRVABC59 infected in human Huh-7 cells measured after 24 hrs. The format is functional, organism-based. Conditions: PRVABC59, Huh-7, 24 h.
In data set [7] the test system is Marburgvirus. Briefly: microbe, parasite or virus in culture. The format is functional, organism-based. The note with it: Orthomarburgvirus, Huh-7.
The subject of data set [8] is Nipah virus. Briefly: microbe, parasite or virus in culture. The format is functional, organism-based. The note with it: Henipavirus nipahense.
In data set [9] the test system is Nipah virus. Briefly: microbe, parasite or virus in culture. The format is functional, organism-based, HEK293T. The note with it: Henipavirus nipahense, HEK-293T.
Data set [10] has as its system Ebolavirus. Nature of the data set: microbe, parasite or virus in culture. Conditions: Orthoebolavirus, Huh-7. Type of data set: functional, organism-based.
In data set [11] the test system is Marburgvirus. Briefly: microbe, parasite or virus in culture. The format is functional, organism-based. Conditions: Orthomarburgvirus.
Data set [12] deals with T1, Cyclin-dependent kinase 7 (Homo sapiens, UniProt P50613).
T1 sequence (P50613 whole entry): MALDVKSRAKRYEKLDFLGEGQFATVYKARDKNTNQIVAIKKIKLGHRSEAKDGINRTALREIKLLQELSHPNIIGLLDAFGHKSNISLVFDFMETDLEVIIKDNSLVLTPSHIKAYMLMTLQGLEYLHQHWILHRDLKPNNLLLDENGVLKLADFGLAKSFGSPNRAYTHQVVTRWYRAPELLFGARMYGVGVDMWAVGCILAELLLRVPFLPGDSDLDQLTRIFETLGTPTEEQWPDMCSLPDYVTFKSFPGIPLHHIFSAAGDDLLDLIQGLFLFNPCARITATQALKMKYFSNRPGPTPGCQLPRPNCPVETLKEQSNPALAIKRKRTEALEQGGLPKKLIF
Data set [13] can be described thus: Cytotoxicity against human HCT-116 cells. Type of data set: toxicity, cell-based.
For data set [14], the system named is Zika virus. Briefly: Antiviral activity against ZIKV MR766 infected in 1 hr pretreated rhesus monkey LLC-MK2 cells measured after 24 to 72 hrs. The format is functional, organism-based.
The test system of data set [15] is Influenza A virus. Briefly: microbe, parasite or virus in culture. The format is functional, organism-based. Conditions: H5N1.
In data set [16] the test system is Influenza A virus. Nature of the data set: microbe, parasite or virus in culture. The format is functional, organism-based. Conditions: A/ck/Yamaguchi/7/2004 (H5N10).
Data set [17] in a line: in vitro. The note with it: dog.
Data set [18] has as its system Influenza A virus. Nature of the data set: microbe, parasite or virus in culture. Type of data set: functional, organism-based. Conditions: H7N9.
Data set [19] concerns the target Tyrosine-protein kinase JAK2 (Homo sapiens, UniProt O60674). Conditions: dose 50.0 nM.
In data set [20] the test system is Influenza A virus. Briefly: Antiviral activity against influenza A virus (A/WSN/1933) strain. The format is functional, organism-based.
Data set [21] concerns Influenza A virus. Briefly: microbe, parasite or virus in culture. Type of data set: functional, organism-based. The note with it: H3N2.
Data set [22] has as its system Influenza A virus. Briefly: microbe, parasite or virus in culture. The note with it: A/Anhui/1/2013 (H7N9). The format is functional, organism-based.
For data set [23], the system named is Dengue virus. Briefly: microbe, parasite or virus in culture.
For data set [24], the system named is Influenza A virus. Briefly: microbe, parasite or virus in culture. The note with it: FPV H7N7.
Data set [25] concerns Influenza A virus. Nature of the data set: microbe, parasite or virus in culture. The note with it: Lung, 24 h.
Data set [26] has as its system Influenza A virus. Briefly: microbe, parasite or virus in culture. The note with it: GSB H5N1.
Data set [27] concerns Influenza A virus. Nature of the data set: microbe, parasite or virus in culture. The note with it: RB1 H1N1.
The test system of data set [28] is Influenza A virus. Nature of the data set: microbe, parasite or virus in culture. The note with it: H1N1v, A549.
For data set [29], the system named is Influenza A virus. Nature of the data set: microbe, parasite or virus in culture. Conditions: A/FPV/Bratislava/79 (H7N7), MDCK-II.
The test system of data set [30] is Influenza A virus. Briefly: microbe, parasite or virus in culture. The note with it: MB1 H5N1.
The test system of data set [31] is Influenza A virus. Briefly: microbe, parasite or virus in culture. The note with it: H7N7.
The nature of data set [32]: in vitro. Conditions: human, hff.
The target in data set [33] is T1, Cyclin-dependent kinase 7. This is another data set of the same source.
For data set [34], the system named is Human betaherpesvirus 5. Briefly: microbe, parasite or virus in culture. Type of data set: functional, organism-based.
The nature of data set [35]: in vitro. Conditions: human, ccrf-cem.
The nature of data set [36]: in vitro. The note with it: human, jurkat.
Data set [37] in a line: in vitro. Conditions: human, u-937.
Data set [38] concerns Human alphaherpesvirus 1. Briefly: Antiviral activity against HSV-1 assessed as reduction of viral growth at 50 uM. The format is functional. The arrangement: scale not given: the % may be the effect or the level left.
The test system of data set [39] is Human immunodeficiency virus 1. Nature of the data set: Antiviral activity against HIV-1 assessed as reduction of viral growth at 50 uM. The format is functional. The arrangement: scale not given: the % may be the effect or the level left.
Data set [40] has as its system Pichinde virus. Nature of the data set: Antiviral activity against PICV assessed as reduction of viral growth at 50 uM. The format is functional. The arrangement: scale not given: the % may be the effect or the level left.
The subject of data set [41] is Pichinde virus. Briefly: Antiviral activity against PICV infected in african green monkey Vero cells assessed as reduction in viral titre at 100 uM relative to control. The arrangement: scale not given: the % may be the effect or the level left. The format is functional.
The subject of data set [42] is Human alphaherpesvirus 1. Nature of the data set: Antiviral activity against HSV-1 infected in african green monkey Vero cells assessed as inhibition of cytopathic effect at 50 uM. The format is functional. On the set-up: scale not given: the % may be the effect or the level left. In general terms: Cytopathic effects are the visible damage that an infection or toxin causes in cultured cells.

Data set [43] has as its system Hepatitis B virus. Briefly: microbe, parasite or virus in culture. Type of data set: functional, organism-based. The note with it: Hepatitis B virus.
A short description of data set [44]: in vitro. Conditions: chlorocebus sabaeus, Vero cells.
Data set [45] concerns the target Cyclin-dependent kinase 2 (Homo sapiens, UniProt P24941).
Data set [46] can be described thus: Cytotoxicity against human astrocyte cells. Type of data set: toxicity, cell-based.
Data set [47] has as its system Murine coronavirus. Nature of the data set: Antiviral activity against MHV. The format is functional, organism-based.
Data set [48] deals with Murine coronavirus. Nature of the data set: Antiviral activity against mCoV-68 infected in african green monkey Vero cells incubated for 7 days by counting number of plaque by crystal violet staining method. The format is functional, organism-based. The note with it: Murine coronavirus, 68, Vero, 168 h.
The nature of data set [49]: Cytotoxicity against mouse NIH3T3 cells. The format is toxicity, cell-based.
Data set [50] relates to Influenza B virus. Nature of the data set: Antiviral activity against influenza B virus assessed as log reduction of virus at 5 to 10 uM. Type of data set: functional. Conditions: dose 5-10 µM.
The target of data set [51] is Protein kinase C beta type (Homo sapiens, UniProt P05771). Nature of the data set: Inhibition of PKCbeta2 (unknown origin).
Sequence of Protein kinase C beta type (P05771 whole entry): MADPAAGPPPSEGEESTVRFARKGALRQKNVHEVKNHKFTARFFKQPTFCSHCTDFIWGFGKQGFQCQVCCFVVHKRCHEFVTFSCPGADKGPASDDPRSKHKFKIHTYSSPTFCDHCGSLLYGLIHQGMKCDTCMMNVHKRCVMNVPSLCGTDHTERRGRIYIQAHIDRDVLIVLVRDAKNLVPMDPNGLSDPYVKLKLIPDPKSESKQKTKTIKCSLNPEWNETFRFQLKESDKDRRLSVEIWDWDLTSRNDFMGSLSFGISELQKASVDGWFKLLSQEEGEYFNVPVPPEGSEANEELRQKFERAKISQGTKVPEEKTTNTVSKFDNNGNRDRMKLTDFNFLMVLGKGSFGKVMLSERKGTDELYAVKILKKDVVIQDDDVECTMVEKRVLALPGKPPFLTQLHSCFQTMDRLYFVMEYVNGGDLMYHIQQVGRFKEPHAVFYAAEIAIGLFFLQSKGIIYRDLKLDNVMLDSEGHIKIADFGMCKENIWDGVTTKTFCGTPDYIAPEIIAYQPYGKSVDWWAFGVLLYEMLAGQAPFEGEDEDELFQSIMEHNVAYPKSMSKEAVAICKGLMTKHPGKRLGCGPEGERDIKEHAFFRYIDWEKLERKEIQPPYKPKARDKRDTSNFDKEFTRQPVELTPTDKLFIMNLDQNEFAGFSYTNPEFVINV
The test system of data set [52] is Influenza A virus. Briefly: Antiviral activity against influenza A virus assessed as log reduction of virus at 5 to 10 uM. The format is functional. Conditions: dose 5-10 µM.
Data set [53] can be described thus: Cytotoxicity against human MCF7 cells. The format is toxicity, cell-based.
Data set [54] in a line: Cytotoxicity against human HL-60 cells. Type of data set: toxicity, cell-based.

The record followed here is ChEMBL document CHEMBL5131375, “Recent Developments in the Use of Kinase Inhibitors for Management of Viral Infections” (J Med Chem, 2022).

Sequence of Tyrosine-protein kinase JAK2 (O60674 whole entry): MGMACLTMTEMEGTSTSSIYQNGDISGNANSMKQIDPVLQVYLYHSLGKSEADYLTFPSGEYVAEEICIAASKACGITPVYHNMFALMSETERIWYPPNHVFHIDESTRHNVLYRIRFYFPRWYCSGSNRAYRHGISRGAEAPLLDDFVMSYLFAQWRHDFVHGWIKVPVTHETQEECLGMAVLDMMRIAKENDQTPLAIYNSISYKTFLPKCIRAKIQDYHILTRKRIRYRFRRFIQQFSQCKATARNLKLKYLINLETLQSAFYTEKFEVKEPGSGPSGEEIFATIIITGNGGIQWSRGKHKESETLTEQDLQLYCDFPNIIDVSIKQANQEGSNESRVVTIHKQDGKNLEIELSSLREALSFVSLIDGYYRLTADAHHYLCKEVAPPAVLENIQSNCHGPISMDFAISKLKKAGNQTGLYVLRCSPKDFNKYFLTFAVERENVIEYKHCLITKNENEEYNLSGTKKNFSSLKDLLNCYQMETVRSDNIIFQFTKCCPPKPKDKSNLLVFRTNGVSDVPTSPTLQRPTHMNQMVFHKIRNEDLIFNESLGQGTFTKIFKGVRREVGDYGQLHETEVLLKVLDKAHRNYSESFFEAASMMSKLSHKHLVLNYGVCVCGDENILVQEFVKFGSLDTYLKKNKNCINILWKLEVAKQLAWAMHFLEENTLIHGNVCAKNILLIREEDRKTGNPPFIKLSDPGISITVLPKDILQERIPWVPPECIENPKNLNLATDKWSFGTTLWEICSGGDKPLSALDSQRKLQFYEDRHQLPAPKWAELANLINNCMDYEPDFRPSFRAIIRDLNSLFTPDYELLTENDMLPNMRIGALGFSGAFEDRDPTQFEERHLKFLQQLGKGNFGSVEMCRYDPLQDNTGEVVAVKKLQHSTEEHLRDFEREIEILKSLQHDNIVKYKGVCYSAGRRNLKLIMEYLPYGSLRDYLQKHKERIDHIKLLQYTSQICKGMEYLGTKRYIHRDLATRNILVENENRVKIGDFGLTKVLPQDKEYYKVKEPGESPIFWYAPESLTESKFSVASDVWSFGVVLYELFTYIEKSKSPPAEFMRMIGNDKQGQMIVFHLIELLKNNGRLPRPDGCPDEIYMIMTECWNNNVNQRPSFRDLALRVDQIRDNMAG

`NCC(=O)Nc1ccc(-n2nc(C(F)(F)F)cc2-c2ccc3c(ccc4ccccc43)c2)cc1` [AR-12]: in data set [1], the CC50 is more than 10000 nM. In addition, the EC50 – broadly, the concentration at which the effect is half-maximal – in [2] is 300 nM; in [3], 500 nM; in data set [7] it was 300 nM; in data set [8], 300 nM; in data set [9] it was 300 nM; in data set [10], 300 nM. In [11], the EC50 came to 300 nM. For the same molecule, the IC50 – broadly, the concentration that gives 50% inhibition – is 2000 nM in data set [4], less than 2000 nM in data set [5] and 2000 nM in data set [6].
On to `CC(C)c1[nH]n(-c2c(Cl)cccc2Cl)c2nc(Cc3ccc(OCCO)cc3)nc(=O)c1-2`, for which the IC50 in data set [12] turned out to be 71 nM; in data set [5], 90 nM; in data set [14], 27 nM. For the same molecule, the CC50 in data set [13] was 40 nM.
As to `CC1=C(C)C2NC(=O)C(CN3C(=S)N([C@@H](C)c4ccccc4)C(=O)C3C3CC3)C=C2C=C1` (stereo partly drawn), the EC50 came to 20000 nM in [15], 20000 nM in data set [18] and 20 nM in data set [21]. The IC50 in data set [16] came to 20 nM; in [20] it was 12 nM; in [22], 20 nM. In [17] (MDCK cells), this molecule showed a CC50 of 3800 nM. Further, the inhibition (in general, the percentage by which the read-out fell short of the control) in data set [19] is 61%.
Regarding `N#CC(=C(/N)Sc1ccccc1N)/C(C#N)=C(\N)Sc1ccccc1N`, half-maximal inhibition in [23] (IC50) was put at 14200 nM. In addition, the EC50 in [24] amounted to 82700 nM; in [25], 620000 nM; in [26], 36600 nM; in data set [27], 1210 nM; in data set [28], 1200 nM; in data set [29] it was 74700 nM. The results for the EC50 in [30] and in [31] were 4430 nM and 620000 nM, respectively. This molecule also registered a CC50 in [17] (mdck) of more than 50000 nM.
On to `CC(C)c1cnn2c(NCc3ccccc3-n3cccn3)nc(OC3CCCNC3)nc12` (stereo not drawn), for which the CC50 in data set [32] is 6200 nM. For the same molecule, the 50% inhibitory concentration (IC50) in data set [12] and in data set [33] was less than 5 nM in each case. In addition, a half-maximal response in data set [34] (EC50) required 24 nM.
`O=C1Cc2c([nH]c3ccc([N+](=O)[O-])cc23)-c2ccccc2N1` [ALSTERPAULLONE]: the CC50 in data set [35], in data set [36] and in data set [37] was more than 1000 nM throughout.
As for `O=c1c(-c2ccc(O)cc2)coc2cc(O)cc(O)c12` [GENISTEIN], the Activity in [38] is more than 50%; in [39], more than 50%; in data set [40], more than 50%; in data set [41], 90%; in data set [42], 11%. A half-maximal response in data set [43] (EC50) required 33000 nM. This molecule showed a CC50 in data set [44] of more than 50000 nM.
Turning to `CCCc1cnc(NC(=O)[C@@H](C)c2ccc(NC(C)=O)cc2)s1`, the IC50 in data set [5] is 90 nM; in data set [45] it was 31 nM. The same molecule registered a CC50 in data set [46] of more than 10000 nM.
As to `CC(C)=CCC[C@](C)(O)C1CC[C@]2(C)[C@@H]1[C@H](O)C[C@@H]1[C@@]3(C)CC[C@H](O[C@@H]4O[C@H](CO)[C@@H](O)[C@H](O)[C@H]4O[C@@H]4O[C@H](CO)[C@@H](O)[C@H](O)[C@H]4O)C(C)(C)[C@@H]3CC[C@]12C` (stereo partly drawn), the IC50 in [47] and in data set [48] was 10000 nM each time. Besides, the CC50 in data set [49] is more than 50000 nM.
As to `O=C1NC(=O)C(c2c[nH]c3ccccc23)=C1c1c[nH]c2ccccc12` [RO-316233], the “log(activity)” value in data set [50] and in [52] was 1 each time. In addition, the IC50 in [51] was determined as 16 nM. The CC50 in [53] and in data set [54] was more than 8000 nM in each case.
